# Experiments:
# Assay type in all cases: functional
# BT-549 = test: Growth inhibition of human BT549 cells assessed as cell growth at 1 uM after 48 hrs by SRB assay; conditions: BT-549, 48 h, read-out: Activity
# SR = test: Growth inhibition of human SR cells assessed as cell growth at 10 uM after 48 hrs by SRB assay; conditions: read-out: Activity
# NCI-H23 [1] = test: Growth inhibition of human NCI-H23 cells assessed as cell growth at 10 uM after 48 hrs by SRB assay; conditions: NCI-H23, 48 h, read-out: Activity
# NCI-H522 [2] = test: Growth inhibition of human NCI-H522 cells assessed as cell growth at 10 uM after 48 hrs by SRB assay; conditions: NCI-H522, 48 h, read-out: Activity
# SNB-19 [3] = test: Growth inhibition of human SNB19 cells after 48 hrs by […] growth inhibition assay; conditions: SNB-19, 48 h
# IGROV-1 = test: Growth inhibition of human IGROV1 cells after 48 hrs by […] growth inhibition assay; conditions: IGROV-1, 48 h
# OVCAR-8 [4] = test: Growth inhibition of human OVCAR8 cells after 48 hrs by […] growth inhibition assay; conditions: OVCAR-8, 48 h
# HOP-62 = test: Growth inhibition of human HOP62 cells assessed as cell growth at 0.1 uM after 48 hrs by SRB assay; conditions: HOP-62, 48 h, read-out: Activity
# COLO 205 = test: Growth inhibition of human COLO205 cells assessed as cell growth at 0.1 uM after 48 hrs by SRB assay; conditions: COLO 205, 48 h, read-out: Activity
# HCT-116 = test: Growth inhibition of human HCT116 cells assessed as cell growth at 0.1 uM after 48 hrs by SRB assay; conditions: HCT-116, 48 h, read-out: Activity
# SNB-75 = test: Growth inhibition of human SNB75 cells assessed as cell growth at 0.1 uM after 48 hrs by SRB assay; conditions: SNB-75, 48 h, read-out: Activity
# M14 = test: Growth inhibition of human M14 cells assessed as cell growth at 0.1 uM after 48 hrs by SRB assay; conditions: M14, 48 h, read-out: Activity
# SN12C = test: Growth inhibition of human SN12C cells assessed as cell growth at 0.1 uM after 48 hrs by SRB assay; conditions: read-out: Activity
# SNB-19 [5] = test: Growth inhibition of human SNB19 cells assessed as cell growth at 10 uM after 48 hrs by SRB assay; conditions: SNB-19, 48 h, read-out: Activity
# 786-0 = test: Growth inhibition of human 786-0 cells assessed as cell growth at 10 uM after 48 hrs by SRB assay; conditions: 786-0, 48 h, read-out: Activity
# ACHN [6] = test: Growth inhibition of human ACHN cells assessed as cell growth at 10 uM after 48 hrs by SRB assay; conditions: read-out: Activity
# MCF7 = test: Growth inhibition of human MCF7 cells assessed as cell growth at 10 uM after 48 hrs by SRB assay; conditions: MCF7, 48 h, read-out: Activity
# MDA-MB-435 = test: Growth inhibition of human MDA-MB-435 cells assessed as cell growth at 10 uM after 48 hrs by SRB assay; conditions: MDA-MB-435, 48 h, read-out: Activity
# HOP-92 [7] = test: Growth inhibition of human HOP92 cells assessed as cell growth at 100 uM after 48 hrs by SRB assay; conditions: HOP-92, 48 h, read-out: Activity
# NCI-H23 [8] = test: Growth inhibition of human NCI-H23 cells assessed as cell growth at 100 uM after 48 hrs by SRB assay; conditions: NCI-H23, 48 h, read-out: Activity
# U-251 = test: Growth inhibition of human U251 cells assessed as cell growth at 100 uM after 48 hrs by SRB assay; conditions: U-251, 48 h, read-out: Activity
# LOX IMVI = test: Growth inhibition of human LOXIMVI cells assessed as cell growth at 100 uM after 48 hrs by SRB assay; conditions: read-out: Activity
# A498 [9] = test: Growth inhibition of human A498 cells assessed as cell growth at 100 uM after 48 hrs by SRB assay; conditions: A498, 48 h, read-out: Activity
# ACHN [10] = test: Growth inhibition of human ACHN cells assessed as cell growth at 100 uM after 48 hrs by SRB assay; conditions: read-out: Activity
# CAKI-1 = test: Growth inhibition of human Caki1 cells assessed as cell growth at 100 uM after 48 hrs by SRB assay; conditions: CAKI-1, 48 h, read-out: Activity
# TK-10 = test: Growth inhibition of human TK10 cells assessed as cell growth at 100 uM after 48 hrs by SRB assay; conditions: TK-10, 48 h, read-out: Activity
# HOP-92 [11] = test: Growth inhibition of human HOP92 cells assessed as cell growth at 1 mM after 48 hrs by SRB assay; conditions: HOP-92, 48 h, read-out: Activity
# A498 [12] = test: Growth inhibition of human A498 cells assessed as cell growth at 1 mM after 48 hrs by SRB assay; conditions: A498, 48 h, read-out: Activity
# MDA-MB-231 = test: Growth inhibition of human MDA-MB-231 cells assessed as cell growth at 1 mM after 48 hrs by SRB assay; conditions: MDA-MB-231, 48 h, read-out: Activity
# NCI/ADR-RES = test: Growth inhibition of human NCI/ADR-RES cells after 48 hrs by SRB assay
# [13] = Growth inhibition of human […] cells assessed as cell growth at 1 uM after 48 hrs by SRB assay; conditions: read-out: Activity
# NCI-H522 [14] = test: Growth inhibition of human NCI-H522 cells assessed as cell growth at 1 uM after 48 hrs by SRB assay; conditions: NCI-H522, 48 h, read-out: Activity
# HCT-15 = test: Growth inhibition of human HCT15 cells assessed as cell growth at 1 uM after 48 hrs by SRB assay; conditions: HCT-15, 48 h, read-out: Activity
# UACC-257 = test: Growth inhibition of human UACC257 cells assessed as cell growth at 1 uM after 48 hrs by SRB assay; conditions: UACC-257, 48 h, read-out: Activity
# OVCAR-8 [15] = test: Growth inhibition of human OVCAR8 cells assessed as cell growth at 1 uM after 48 hrs by SRB assay; conditions: OVCAR-8, 48 h, read-out: Activity
# [16] = read-out: LC50 (the source's name)
# [17] = read-out: pLC50 (the source's name) (converted)
smiles,measurement,setting,value
CCOC(=O)C[C@H]1[C@@H](O[Si](C)(C)C(C)(C)C)[C@H](n2cnc3c(NC(=O)Nc4ccccc4)ncnc32)O[C@@H]1CNC(=O)NC,growth at 1 µM,BT-549,109%
same,growth at 10 µM,SR,85%
same,growth at 10 µM,NCI-H23 [1],100%
same,growth at 10 µM,NCI-H522 [2],83%
same,GI50,SNB-19 [3]; read-out: GI50,29 µM
same,CC50,SNB-19 [3]; [16],> 100 µM
same,TGI,SNB-19 [3]; read-out: TGI,> 100 µM
same,GI50,SNB-19 [3]; read-out: pGI50 (converted),28.8 µM
same,CC50,SNB-19 [3]; [17],> 100 µM
same,TGI,SNB-19 [3]; read-out: pTGI,> 100 µM
same,GI50,IGROV-1; read-out: GI50,3.85 µM
same,CC50,IGROV-1; [16],79.2 µM
same,TGI,IGROV-1; read-out: TGI,18 µM
same,GI50,IGROV-1; read-out: pGI50 (converted),3.89 µM
same,CC50,IGROV-1; [17],79.4 µM
same,TGI,IGROV-1; read-out: pTGI (converted),18.2 µM
same,GI50,OVCAR-8 [4]; read-out: GI50,4.92 µM
same,CC50,OVCAR-8 [4]; [16],> 100 µM
same,TGI,OVCAR-8 [4]; read-out: TGI,77.2 µM
same,GI50,OVCAR-8 [4]; read-out: pGI50 (converted),4.9 µM
same,CC50,OVCAR-8 [4]; [17],> 100 µM
same,TGI,OVCAR-8 [4]; read-out: pTGI (converted),77.6 µM
same,growth at 0.1 µM,HOP-62,99%
same,growth at 0.1 µM,COLO 205,102%
same,growth at 0.1 µM,HCT-116,93%
same,growth at 0.1 µM,SNB-75,92%
same,growth at 0.1 µM,M14,90%
same,growth at 0.1 µM,SN12C,101%
same,growth at 10 µM,SNB-19 [5],87%
same,growth at 10 µM,786-0,86%
same,growth at 10 µM,ACHN [6],96%
same,growth at 10 µM,MCF7,89%
same,growth at 10 µM,MDA-MB-435,89%
same,growth at 100 µM,HOP-92 [7],-32%
same,growth at 100 µM,NCI-H23 [8],65%
same,growth at 100 µM,U-251,28%
same,growth at 100 µM,LOX IMVI,35%
same,growth at 100 µM,A498 [9],13%
same,growth at 100 µM,ACHN [10],47%
same,growth at 100 µM,CAKI-1,88%
same,growth at 100 µM,TK-10,59%
same,growth at 1000 µM,HOP-92 [11],-61%
same,growth at 1000 µM,A498 [12],-41%
same,growth at 1000 µM,MDA-MB-231,-13%
same,GI50,NCI/ADR-RES; read-out: GI50,> 100 µM
same,CC50,NCI/ADR-RES; [16],> 100 µM
same,TGI,NCI/ADR-RES; read-out: TGI,> 100 µM
same,GI50,NCI/ADR-RES; read-out: pGI50 (converted),> 100 µM
same,CC50,NCI/ADR-RES; [17],> 100 µM
same,TGI,NCI/ADR-RES; read-out: pTGI (converted),> 100 µM
same,growth at 1 µM,[13],75%
same,growth at 1 µM,NCI-H522 [14],85%
same,growth at 1 µM,HCT-15,96%
same,growth at 1 µM,UACC-257,102%
same,growth at 1 µM,OVCAR-8 [15],100%
CNC(=O)NC[C@H]1O[C@@H](n2cnc3c(NC(=O)Nc4ccccc4)ncnc32)[C@H](O[Si](C)(C)C(C)(C)C)[C@@H]1CC(=O)N(C)OC,growth at 1 µM,BT-549,98%
same,growth at 10 µM,SR,62%
same,growth at 10 µM,NCI-H23 [1],99%
same,growth at 10 µM,NCI-H522 [2],84%
same,GI50,SNB-19 [3]; read-out: GI50,> 100 µM
same,CC50,SNB-19 [3]; [16],> 100 µM
same,TGI,SNB-19 [3]; read-out: TGI,> 100 µM
same,GI50,SNB-19 [3]; read-out: pGI50 (converted),> 100 µM
same,CC50,SNB-19 [3]; [17],> 100 µM
same,TGI,SNB-19 [3]; read-out: pTGI,> 100 µM
same,GI50,IGROV-1; read-out: GI50,3.72 µM
same,CC50,IGROV-1; [16],> 100 µM
same,TGI,IGROV-1; read-out: TGI,65.7 µM
same,GI50,IGROV-1; read-out: pGI50 (converted),3.72 µM
same,CC50,IGROV-1; [17],> 100 µM
same,TGI,IGROV-1; read-out: pTGI (converted),66.1 µM
same,GI50,OVCAR-8 [4]; read-out: GI50,9.02 µM
same,CC50,OVCAR-8 [4]; [16],> 100 µM
same,TGI,OVCAR-8 [4]; read-out: TGI,> 100 µM
same,GI50,OVCAR-8 [4]; read-out: pGI50 (converted),9.12 µM
same,CC50,OVCAR-8 [4]; [17],> 100 µM
same,TGI,OVCAR-8 [4]; read-out: pTGI (converted),> 100 µM
same,growth at 0.1 µM,HOP-62,92%
same,growth at 0.1 µM,COLO 205,97%
same,growth at 0.1 µM,HCT-116,93%
same,growth at 0.1 µM,SNB-75,94%
same,growth at 0.1 µM,M14,98%
same,growth at 0.1 µM,SN12C,106%
same,growth at 10 µM,SNB-19 [5],83%
same,growth at 10 µM,786-0,93%
same,growth at 10 µM,ACHN [6],95%
same,growth at 10 µM,MCF7,96%
same,growth at 10 µM,MDA-MB-435,98%
same,growth at 100 µM,HOP-92 [7],27%
same,growth at 100 µM,NCI-H23 [8],71%
same,growth at 100 µM,U-251,37%
same,growth at 100 µM,LOX IMVI,43%
same,growth at 100 µM,A498 [9],24%
same,growth at 100 µM,ACHN [10],55%
same,growth at 100 µM,CAKI-1,57%
same,growth at 100 µM,TK-10,65%
same,growth at 1000 µM,HOP-92 [11],-43%
same,growth at 1000 µM,A498 [12],-16%
same,growth at 1000 µM,MDA-MB-231,5%
same,GI50,NCI/ADR-RES; read-out: GI50,> 100 µM
same,CC50,NCI/ADR-RES; [16],> 100 µM
same,TGI,NCI/ADR-RES; read-out: TGI,> 100 µM
same,GI50,NCI/ADR-RES; read-out: pGI50 (converted),> 100 µM
same,CC50,NCI/ADR-RES; [17],> 100 µM
same,TGI,NCI/ADR-RES; read-out: pTGI (converted),> 100 µM
same,growth at 1 µM,[13],91%
same,growth at 1 µM,NCI-H522 [14],87%
same,growth at 1 µM,HCT-15,94%
same,growth at 1 µM,UACC-257,103%
same,growth at 1 µM,OVCAR-8 [15],106%

# — ChEMBL document CHEMBL1681651, “A broad spectrum anticancer nucleoside with selective toxicity against human colon cells in vitro” (2011)
